Test results as given in patent US10392368B2, “Pyrazolo and triazolo bicyclic compounds as JAK kinase inhibitors” (THERAVANCE BIOPHARMA R&D IP, LLC, priority 2017, dated 2019).

Key:
[1] = target: T1, JAK1 (Homo sapiens, UniProt P23458); experiment: Biochemical JAK1 kinase assay (LanthaScreen)
T1 construct: GST; purchased Life Technologies
In short: (§1)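 TR-FRET read-out: terbium anti-pSTAT1 (pTyr701) antibody, 2 nM, with 10 mM EDTA quench, emission ratio 520/495 nm. GST-JAK phosphorylates GFP-STAT1 peptide for 1 h at ambient temperature after 1 h compound pre-incubation. pIC50 from dose-response converted to pKi by Cheng-Prusoff.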

[2] = target: T2, JAK2 (Homo sapiens, UniProt O60674); experiment: Biochemical JAK2 kinase assay (LanthaScreen)
T2 construct: GST; purchased Life Technologies
T2 sequence (O60674 whole entry): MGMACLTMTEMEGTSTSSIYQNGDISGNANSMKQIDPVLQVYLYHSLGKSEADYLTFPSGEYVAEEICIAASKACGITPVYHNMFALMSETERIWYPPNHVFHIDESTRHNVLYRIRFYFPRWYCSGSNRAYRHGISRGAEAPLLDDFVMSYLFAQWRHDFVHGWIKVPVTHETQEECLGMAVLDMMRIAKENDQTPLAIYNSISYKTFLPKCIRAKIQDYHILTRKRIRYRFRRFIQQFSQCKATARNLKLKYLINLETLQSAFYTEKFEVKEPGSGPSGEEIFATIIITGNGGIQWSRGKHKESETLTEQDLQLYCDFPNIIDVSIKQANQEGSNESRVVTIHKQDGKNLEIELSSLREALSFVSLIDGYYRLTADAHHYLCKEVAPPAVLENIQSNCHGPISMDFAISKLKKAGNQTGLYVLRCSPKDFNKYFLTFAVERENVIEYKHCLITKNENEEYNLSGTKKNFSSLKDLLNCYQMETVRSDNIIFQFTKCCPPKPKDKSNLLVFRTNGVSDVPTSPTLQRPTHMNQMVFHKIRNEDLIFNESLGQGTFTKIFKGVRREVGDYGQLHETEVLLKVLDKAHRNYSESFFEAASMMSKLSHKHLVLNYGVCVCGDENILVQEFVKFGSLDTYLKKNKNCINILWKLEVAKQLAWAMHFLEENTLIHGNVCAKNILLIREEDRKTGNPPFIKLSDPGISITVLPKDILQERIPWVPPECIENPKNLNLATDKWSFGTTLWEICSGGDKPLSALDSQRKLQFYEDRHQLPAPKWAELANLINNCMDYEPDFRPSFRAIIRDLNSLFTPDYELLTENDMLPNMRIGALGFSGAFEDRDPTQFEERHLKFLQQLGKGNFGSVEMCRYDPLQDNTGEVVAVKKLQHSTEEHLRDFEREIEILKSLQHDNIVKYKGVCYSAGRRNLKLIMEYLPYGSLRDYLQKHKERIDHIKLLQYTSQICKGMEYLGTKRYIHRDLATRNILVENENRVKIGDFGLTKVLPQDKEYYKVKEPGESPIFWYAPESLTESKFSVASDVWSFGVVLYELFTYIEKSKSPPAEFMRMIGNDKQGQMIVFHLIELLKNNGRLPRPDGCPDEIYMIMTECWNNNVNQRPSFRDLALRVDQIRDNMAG
In short: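 GST-tagged recombinant JAK2 pre-incubated 1 h at ambient temperature with compound and GFP-STAT1 peptide in HEPES pH 7.5/MgCl2 buffer, then ATP added for a 1 h reaction with 1% DMSO. TR-FRET read after EDTA and Tb-anti-pSTAT1 (pTyr701) addition; IC50 from 4-parameter fit, converted to pKi by Cheng-Prusoff.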

[3] = target: T3, Tyk2 (Homo sapiens, UniProt P29597); experiment: Biochemical Tyk2 kinase assay (LanthaScreen)
T3 construct: GST; purchased Life Technologies
T3 sequence (P29597 whole entry): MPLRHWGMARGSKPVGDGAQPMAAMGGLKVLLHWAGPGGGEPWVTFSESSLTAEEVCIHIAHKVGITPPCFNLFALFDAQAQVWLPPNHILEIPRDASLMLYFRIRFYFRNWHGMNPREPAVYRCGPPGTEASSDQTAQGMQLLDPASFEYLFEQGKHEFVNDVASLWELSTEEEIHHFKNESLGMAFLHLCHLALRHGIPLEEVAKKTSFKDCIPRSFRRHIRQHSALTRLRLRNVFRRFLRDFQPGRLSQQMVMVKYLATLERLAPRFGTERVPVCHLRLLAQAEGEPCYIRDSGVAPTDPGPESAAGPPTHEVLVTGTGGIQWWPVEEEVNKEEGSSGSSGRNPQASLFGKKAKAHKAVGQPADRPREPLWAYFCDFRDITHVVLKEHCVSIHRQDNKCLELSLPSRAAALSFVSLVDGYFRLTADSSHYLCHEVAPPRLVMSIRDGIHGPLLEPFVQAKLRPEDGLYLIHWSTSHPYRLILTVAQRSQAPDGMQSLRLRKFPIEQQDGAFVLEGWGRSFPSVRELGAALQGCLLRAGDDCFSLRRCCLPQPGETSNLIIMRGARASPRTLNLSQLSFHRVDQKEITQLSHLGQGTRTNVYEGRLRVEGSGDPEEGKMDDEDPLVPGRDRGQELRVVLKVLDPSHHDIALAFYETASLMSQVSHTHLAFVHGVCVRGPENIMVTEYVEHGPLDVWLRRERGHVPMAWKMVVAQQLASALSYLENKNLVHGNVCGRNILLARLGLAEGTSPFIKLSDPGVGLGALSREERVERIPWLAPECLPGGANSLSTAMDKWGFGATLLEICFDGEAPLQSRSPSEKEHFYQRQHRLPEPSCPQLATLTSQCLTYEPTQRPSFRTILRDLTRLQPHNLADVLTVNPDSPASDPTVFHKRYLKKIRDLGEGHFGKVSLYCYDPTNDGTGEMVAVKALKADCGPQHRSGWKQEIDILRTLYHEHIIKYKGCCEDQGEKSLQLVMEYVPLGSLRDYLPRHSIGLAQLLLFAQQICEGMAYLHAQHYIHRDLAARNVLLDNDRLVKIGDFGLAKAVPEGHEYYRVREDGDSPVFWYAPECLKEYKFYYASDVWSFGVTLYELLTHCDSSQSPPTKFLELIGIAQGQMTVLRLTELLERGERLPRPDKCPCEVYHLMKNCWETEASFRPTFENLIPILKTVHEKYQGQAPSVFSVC
In short: as §1

[4] = test system: IL-2 stimulated pSTAT5 in Tall-1 T cells; experiment: Cellular JAK3 potency assay: inhibition of IL-2 stimulated pSTAT5 in Tall-1 T cells; type: cell-based, human
In short: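 In human Tall-1 T cells, IL-2 (300 ng/ml final, 30 min) drives STAT5 phosphorylation after a 1 h compound pretreatment. Lysates are assayed for pSTAT5 by AlphaLisa, and IC50 derived from signal versus concentration is expressed as pIC50.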

[5] = target: T4, JAK3 (Homo sapiens, UniProt P52333); experiment: Biochemical JAK3 kinase assay (LanthaScreen); parameters: GST; purchased Life Technologies
T4 sequence (P52333 1-1124): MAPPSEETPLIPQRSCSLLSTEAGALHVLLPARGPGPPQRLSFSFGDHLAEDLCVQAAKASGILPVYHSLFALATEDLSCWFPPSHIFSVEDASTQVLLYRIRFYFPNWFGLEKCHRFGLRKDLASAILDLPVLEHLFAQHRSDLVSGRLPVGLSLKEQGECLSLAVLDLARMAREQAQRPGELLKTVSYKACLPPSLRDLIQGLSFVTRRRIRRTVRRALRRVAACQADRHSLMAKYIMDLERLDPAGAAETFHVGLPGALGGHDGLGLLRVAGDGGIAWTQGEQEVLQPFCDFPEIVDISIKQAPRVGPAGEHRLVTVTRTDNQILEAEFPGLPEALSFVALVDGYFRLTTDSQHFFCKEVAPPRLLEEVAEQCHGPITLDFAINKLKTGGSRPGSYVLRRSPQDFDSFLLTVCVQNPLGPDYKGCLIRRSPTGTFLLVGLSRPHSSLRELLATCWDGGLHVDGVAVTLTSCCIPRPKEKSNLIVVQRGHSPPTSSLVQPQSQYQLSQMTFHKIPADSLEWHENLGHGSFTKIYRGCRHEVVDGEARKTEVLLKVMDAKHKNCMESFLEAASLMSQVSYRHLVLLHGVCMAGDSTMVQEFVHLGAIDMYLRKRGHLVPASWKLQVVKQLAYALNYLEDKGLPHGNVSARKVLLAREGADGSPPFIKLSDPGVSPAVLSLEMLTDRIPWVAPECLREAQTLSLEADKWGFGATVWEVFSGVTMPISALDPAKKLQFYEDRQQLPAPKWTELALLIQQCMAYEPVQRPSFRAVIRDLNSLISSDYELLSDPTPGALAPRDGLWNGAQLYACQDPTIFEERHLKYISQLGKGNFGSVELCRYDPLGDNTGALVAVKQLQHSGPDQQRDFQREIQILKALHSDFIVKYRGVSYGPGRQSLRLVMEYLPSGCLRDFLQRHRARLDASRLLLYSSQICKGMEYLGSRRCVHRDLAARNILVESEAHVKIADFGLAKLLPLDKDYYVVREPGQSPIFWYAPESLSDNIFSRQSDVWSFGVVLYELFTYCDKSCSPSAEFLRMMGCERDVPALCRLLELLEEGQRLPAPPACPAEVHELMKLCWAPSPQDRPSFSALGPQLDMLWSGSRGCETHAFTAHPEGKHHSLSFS
In short: as §1

[6] = IL-2 stimulated pSTAT5 in Tall-1 T cells
[7] = selectivity: difference of pKi JAK3 and pKi JAK1
[8] = IL-2 stimulated pSTAT5, Tall-1 T cells
[9] = selectivity JAK3 over JAK1, difference of pKi

T1 sequence (P23458 whole entry): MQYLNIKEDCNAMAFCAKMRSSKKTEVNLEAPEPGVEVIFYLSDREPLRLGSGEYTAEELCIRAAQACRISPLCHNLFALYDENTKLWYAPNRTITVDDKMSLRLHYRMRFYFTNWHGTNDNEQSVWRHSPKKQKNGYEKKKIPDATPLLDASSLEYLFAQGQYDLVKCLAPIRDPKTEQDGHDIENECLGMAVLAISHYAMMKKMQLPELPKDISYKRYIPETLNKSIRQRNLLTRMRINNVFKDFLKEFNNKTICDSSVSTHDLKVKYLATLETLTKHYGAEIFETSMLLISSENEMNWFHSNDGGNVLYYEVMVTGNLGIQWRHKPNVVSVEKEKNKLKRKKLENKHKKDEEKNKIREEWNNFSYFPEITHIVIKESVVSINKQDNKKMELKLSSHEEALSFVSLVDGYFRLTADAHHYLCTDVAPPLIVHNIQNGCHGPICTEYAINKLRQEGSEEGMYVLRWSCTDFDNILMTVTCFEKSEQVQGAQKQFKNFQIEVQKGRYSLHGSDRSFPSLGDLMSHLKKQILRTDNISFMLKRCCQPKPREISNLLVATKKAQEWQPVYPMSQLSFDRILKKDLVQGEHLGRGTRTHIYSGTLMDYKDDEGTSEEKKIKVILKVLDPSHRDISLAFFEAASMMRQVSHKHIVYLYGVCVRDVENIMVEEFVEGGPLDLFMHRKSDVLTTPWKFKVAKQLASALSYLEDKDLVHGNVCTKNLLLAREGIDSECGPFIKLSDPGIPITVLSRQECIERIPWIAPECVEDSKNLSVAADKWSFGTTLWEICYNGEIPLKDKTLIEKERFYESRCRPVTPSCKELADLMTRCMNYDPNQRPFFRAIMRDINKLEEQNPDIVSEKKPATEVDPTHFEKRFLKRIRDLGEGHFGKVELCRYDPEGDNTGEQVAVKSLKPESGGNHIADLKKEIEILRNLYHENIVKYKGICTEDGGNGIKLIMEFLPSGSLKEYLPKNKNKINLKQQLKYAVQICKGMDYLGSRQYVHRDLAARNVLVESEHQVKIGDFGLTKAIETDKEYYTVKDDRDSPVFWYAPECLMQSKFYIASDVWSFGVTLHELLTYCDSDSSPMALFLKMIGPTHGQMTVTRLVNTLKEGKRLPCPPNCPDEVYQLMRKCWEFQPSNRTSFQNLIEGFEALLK

SMILES	JAK 1 (pKi) [1]	JAK 2 (pKi) [2]	Tyk 2 (pKi) [3]	Tall-1 (pIC50) [4, 6]	JAK 3 (pKi) [5]	JAK3 (pKi)-JAK1 (pKi) [5, 7]	Tall-1 (pIC50) [4, 8]	JAK3 (pKi)-JAK1 (pKi) [5, 9]
CN(C)C/C=C/C(=O)N1CC(CN(C)c2cc(-c3ccc(O)c(F)c3)cc3[nH]ncc23)C1 [Compound 4-6]	E (a pKi value of 7 or below (Ki of 100 nM or above))	E (a pKi value of 7 or below (Ki of 100 nM or above))	E (a pKi value of 7 or below (Ki of 100 nM or above))	B (a pIC50 value between 6.7 (included) and 7.5 (IC50 between 200 nM and 32 nM))	B (a pKi value between 9 and 10 (Ki between 1 nM and 0.1 nM))	A (a value of 3 or above)		
C=CC(=O)N1CC(CN(C)c2cc(-c3ccc(O)c(F)c3)cc3[nH]ncc23)C1 [Compound 4-7]	E (a pKi value of 7 or below (Ki of 100 nM or above))	E (a pKi value of 7 or below (Ki of 100 nM or above))	E (a pKi value of 7 or below (Ki of 100 nM or above))	B (a pIC50 value between 6.7 (included) and 7.5 (IC50 between 200 nM and 32 nM))	C (a pKi value between 8 and 9 (Ki between 10 nM and 1 nM))	B (a value of 2.3 to 3)		
C=CC(=O)N1CC(Oc2cc(-c3ccc(O)cc3)cc3[nH]ncc23)C1 [Compound 5-2]	E (a pKi value of 7 or below (Ki of 100 nM or above))	E (a pKi value of 7 or below (Ki of 100 nM or above))	E (a pKi value of 7 or below (Ki of 100 nM or above))	B (a pIC50 value between 6.7 (included) and 7.5 (IC50 between 200 nM and 32 nM))	B (a pKi value between 9 and 10 (Ki between 1 nM and 0.1 nM))	A (a value of 3 or above)		
CN(C)C/C=C/C(=O)N1CC(Oc2cc(-c3ccc(O)c(Cl)c3)cc3[nH]ncc23)C1 [Compound 5-3]	E (a pKi value of 7 or below (Ki of 100 nM or above))	E (a pKi value of 7 or below (Ki of 100 nM or above))	E (a pKi value of 7 or below (Ki of 100 nM or above))	A (a pIC50 value≥7.5 (IC50≤32 nM))	A (a pKi value≥10 (Ki≤0.1 nM))	A (a value of 3 or above)		
C=CC(=O)N1CC(Oc2cc(-c3ccc(O)c(Cl)c3)cc3[nH]ncc23)C1 [Compound 5-4]	E (a pKi value of 7 or below (Ki of 100 nM or above))	E (a pKi value of 7 or below (Ki of 100 nM or above))	E (a pKi value of 7 or below (Ki of 100 nM or above))	A (a pIC50 value≥7.5 (IC50≤32 nM))	B (a pKi value between 9 and 10 (Ki between 1 nM and 0.1 nM))	A (a value of 3 or above)		
CN(C)C/C=C/C(=O)N1CC(Oc2cc(-c3ccc(O)c(F)c3)cc3[nH]ncc23)C1 [Compound 5-5]	E (a pKi value of 7 or below (Ki of 100 nM or above))	D (a pKi value between 7 and 8 (Ki between 100 nM and 10 nM))	E (a pKi value of 7 or below (Ki of 100 nM or above))	B (a pIC50 value between 6.7 (included) and 7.5 (IC50 between 200 nM and 32 nM))	A (a pKi value≥10 (Ki≤0.1 nM))	A (a value of 3 or above)		
C=CC(=O)N1CC(Oc2cc(-c3ccc(O)c(F)c3)cc3[nH]ncc23)C1 [Compound 5-6]	E (a pKi value of 7 or below (Ki of 100 nM or above))	E (a pKi value of 7 or below (Ki of 100 nM or above))	E (a pKi value of 7 or below (Ki of 100 nM or above))	B (a pIC50 value between 6.7 (included) and 7.5 (IC50 between 200 nM and 32 nM))	B (a pKi value between 9 and 10 (Ki between 1 nM and 0.1 nM))	A (a value of 3 or above)		
C=CC(=O)N1CC(Nc2cc(-c3ccc(O)cc3)cc3[nH]ncc23)C1 [Compound 5-7]	E (a pKi value of 7 or below (Ki of 100 nM or above))	D (a pKi value between 7 and 8 (Ki between 100 nM and 10 nM))	E (a pKi value of 7 or below (Ki of 100 nM or above))	B (a pIC50 value between 6.7 (included) and 7.5 (IC50 between 200 nM and 32 nM))	A (a pKi value≥10 (Ki≤0.1 nM))	A (a value of 3 or above)		
C=CC(=O)N1CC(C)(Oc2cc(-c3ccc(O)cc3)cc3[nH]ncc23)C1 [Compound 5-12]	E (a pKi value of 7 or below (Ki of 100 nM or above))	E (a pKi value of 7 or below (Ki of 100 nM or above))	E (a pKi value of 7 or below (Ki of 100 nM or above))	B (a pIC50 value between 6.7 (included) and 7.5 (IC50 between 200 nM and 32 nM))	B (a pKi value between 9 and 10 (Ki between 1 nM and 0.1 nM))	A (a value of 3 or above)		
C=CC(=O)N1CC(Oc2cc(-c3ccc(O)cc3)cc3[nH]ncc23)(C(F)F)C1 [Compound 5-14]	E (a pKi value of 7 or below (Ki of 100 nM or above))	E (a pKi value of 7 or below (Ki of 100 nM or above))	E (a pKi value of 7 or below (Ki of 100 nM or above))	A (a pIC50 value≥7.5 (IC50≤32 nM))	A (a pKi value≥10 (Ki≤0.1 nM))	A (a value of 3 or above)		
CN(C)C/C=C/C(=O)N1CC(Oc2cc(-c3ccc(O)c(Cl)c3)cc3[nH]ncc23)(C(F)F)C1 [Compound 5-16]	E (a pKi value of 7 or below (Ki of 100 nM or above))	6	E (a pKi value of 7 or below (Ki of 100 nM or above))	A (a pIC50 value≥7.5 (IC50≤32 nM))	A (a pKi value≥10 (Ki≤0.1 nM))	A (a value of 3 or above)		
CN(C)C/C=C/C(=O)N1CC(Oc2cc(-c3ccc(O)c(F)c3)cc3[nH]ncc23)(C(F)F)C1 [Compound 5-17]	E (a pKi value of 7 or below (Ki of 100 nM or above))	E (a pKi value of 7 or below (Ki of 100 nM or above))	E (a pKi value of 7 or below (Ki of 100 nM or above))	A (a pIC50 value≥7.5 (IC50≤32 nM))	B (a pKi value between 9 and 10 (Ki between 1 nM and 0.1 nM))	A (a value of 3 or above)		
CN(C)C/C=C/C(=O)N1CC(C)(Oc2cc(-c3ccc(O)c(Cl)c3)cc3[nH]ncc23)C1 [Compound 5-18]	E (a pKi value of 7 or below (Ki of 100 nM or above))	E (a pKi value of 7 or below (Ki of 100 nM or above))	E (a pKi value of 7 or below (Ki of 100 nM or above))		A (a pKi value≥10 (Ki≤0.1 nM))		A (a pIC50 value≥7.5 (IC50≤32 nM))	A (a value of 3 or above)
CN(C)C/C=C/C(=O)N1CC(C)(Oc2cc(-c3ccc(O)c(F)c3)cc3[nH]ncc23)C1 [Compound 5-19]	E (a pKi value of 7 or below (Ki of 100 nM or above))	E (a pKi value of 7 or below (Ki of 100 nM or above))	E (a pKi value of 7 or below (Ki of 100 nM or above))		B (a pKi value between 9 and 10 (Ki between 1 nM and 0.1 nM))		B (a pIC50 value between 6.7 (included) and 7.5 (IC50 between 200 nM and 32 nM))	A (a value of 3 or above)
